Calls of active or inactive are those of the source. The calls are words filed in the database; no cut-off is given here.
Tests used:
[1] = biological target: T1, Taste receptor type 2 member 46 (Homo sapiens) (UniProt P59540); test: Agonist activity at human TAS2R46 expressed in PMA-induced human BEAS2B cells assessed as antiinflammatory activity by measuring increase in IL-4 gene expression at 1 uM incubated for 18 hrs by qRT-PCR analysis; format: cell-based
T1 sequence (whole entry): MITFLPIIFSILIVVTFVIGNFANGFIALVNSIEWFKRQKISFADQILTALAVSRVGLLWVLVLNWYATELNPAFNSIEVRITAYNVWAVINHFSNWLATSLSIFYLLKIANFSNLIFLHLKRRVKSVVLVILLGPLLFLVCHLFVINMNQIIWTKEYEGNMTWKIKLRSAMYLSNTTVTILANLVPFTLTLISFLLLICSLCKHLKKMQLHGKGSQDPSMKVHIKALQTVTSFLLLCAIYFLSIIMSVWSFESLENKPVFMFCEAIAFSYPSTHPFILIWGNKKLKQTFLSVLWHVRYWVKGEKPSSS

[2] = biological target: T1, Taste receptor type 2 member 46 (Homo sapiens); test: Agonist activity at human TAS2R46 expressed in human BEAS2B cells assessed as increase in cytosolic calcium level at 1 mM by Fluo-2-AM dye based fluorescence assay; format: functional, cell-based
[3] = biological target: T1, Taste receptor type 2 member 46 (Homo sapiens); test: Agonist activity at human TAS2R46 expressed in human BEAS2B cells assessed as antiinflammatory activity by measuring reduction in PMA-induced iNOS mRNA level at 1 uM incubated for 18 hrs by qRT-PCR analysis; format: cell-based
[4] = biological target: T1, Taste receptor type 2 member 46 (Homo sapiens); test: Agonist activity at human TAS2R46 expressed in human BEAS2B cells assessed as antiinflammatory activity by measuring reduction in PMA-induced IL-1beta gene expression at 1 uM incubated for 18 hrs in presence of 1 uM TAS2R46 antagonist 3HDC by qRT-PCR analysis; format: cell-based
[5] = biological target: T1, Taste receptor type 2 member 46 (Homo sapiens); test: Agonist activity at human TAS2R46 expressed in PMA-induced human BEAS2B cells assessed as antiinflammatory activity by measuring increase in IL-10 gene expression at 1 uM incubated for 18 hrs by qRT-PCR analysis; format: cell-based
[6] = biological target: T1, Taste receptor type 2 member 46 (Homo sapiens); test: (§1) Agonist activity at human TAS2R46 expressed in human BEAS2B cells assessed as antiinflammatory activity by measuring reduction in PMA-induced superoxide anion generation at 1 uM preincubated for 1 hr followed by PMA addition and measured after 30 mins by cytochrome C reduction assay; format: cell-based
[7] = biological target: T1, Taste receptor type 2 member 46 (Homo sapiens); test: as §1, with “antioxidant” for “antiinflammatory”, “mins in presence of 1 uM TAS2R46 antagonist 3HDC” for “mins”; format: cell-based
[8] = biological target: T1, Taste receptor type 2 member 46 (Homo sapiens); test: Agonist activity at human TAS2R46 expressed in human BEAS2B cells assessed as antiinflammatory activity by measuring reduction in PMA-induced IL-1beta gene expression at 1 uM incubated for 18 hrs by qRT-PCR analysis; format: cell-based
[9] = biological target: T1, Taste receptor type 2 member 46 (Homo sapiens); test: Agonist activity at human TAS2R46 expressed in human BEAS2B cells assessed as antiinflammatory activity by measuring reduction in PMA-induced MUC5AC expression at 1 uM incubated for 18 hrs by TRITC-phalloidin/DAPI staining based analysis; format: cell-based
[10] = biological target: T1, Taste receptor type 2 member 46 (Homo sapiens); test: Agonist activity at human TAS2R46 expressed in human BEAS2B cells assessed as increase in cytosolic calcium level at 1 mM in presence of […] antagonist 3HDC by Fluo-2-AM dye based fluorescence assay; format: functional, cell-based
[11] = biological target: T1, Taste receptor type 2 member 46 (Homo sapiens); test: Agonist activity at human TAS2R46 expressed in human BEAS2B cells assessed as antiinflammatory activity by measuring reduction in PMA-induced iNOS protein level at 1 uM incubated for 18 hrs by TRITC-phalloidin/DAPI staining based analysis; format: cell-based
[12] = tested on: BEAS-2B; test: Effect on basal superoxide anion production in human BEAS2B cells expressing human TAS2R46 at 1 uM after 1 hr by cytochrome C reduction assay; format: ADME, cell-based
[13] = biological target: T1, Taste receptor type 2 member 46 (Homo sapiens); test: Agonist activity at human TAS2R46 expressed in human BEAS2B cells assessed as increase in cytosolic calcium level at 1 mM in presence of 100 uM TAS2R46 antagonist 3HDC by Fluo-2-AM dye based fluorescence assay; format: functional, cell-based
[14] = biological target: T1, Taste receptor type 2 member 46 (Homo sapiens); test: Agonist activity at human TAS2R46 expressed in PMA-induced human BEAS2B cells assessed as antiinflammatory activity by measuring increase in IL-4 gene expression at 1 uM incubated for 18 hrs in presence of 1 uM TAS2R46 antagonist 3HDC by qRT-PCR analysis; format: cell-based
[15] = biological target: T1, Taste receptor type 2 member 46 (Homo sapiens); test: Agonist activity at human TAS2R46 expressed in PMA-induced human BEAS2B cells assessed as antiinflammatory activity by measuring increase in IL-10 gene expression at 1 uM incubated for 18 hrs in presence of 1 uM TAS2R46 antagonist 3HDC by qRT-PCR analysis; format: cell-based
[16] = biological target: T1, Taste receptor type 2 member 46 (Homo sapiens); test: Agonist activity at human TAS2R46 expressed in human BEAS2B cells assessed as antiinflammatory activity by measuring reduction in PMA-induced iNOS mRNA level at 10 uM incubated for 18 hrs by qRT-PCR analysis; format: cell-based
[17] = tested on: BEAS-2B; test: Effect on basal superoxide anion production in human BEAS2B cells expressing human TAS2R46 at 10 uM after 1 hr by cytochrome C reduction assay; format: ADME, cell-based
[18] = biological target: T1, Taste receptor type 2 member 46 (Homo sapiens); test: Agonist activity at human TAS2R46 expressed in human BEAS2B cells assessed as effect on cytosolic calcium level at microM concentration by Fluo-2-AM dye based fluorescence assay; format: functional, cell-based
[19] = biological target: T1, Taste receptor type 2 member 46 (Homo sapiens); test: Agonist activity at human TAS2R46 expressed in human BEAS2B cells assessed as antiinflammatory activity by measuring reduction in PMA-induced IL-1beta gene expression at 10 uM incubated for 18 hrs by qRT-PCR analysis; format: cell-based
[20] = biological target: T1, Taste receptor type 2 member 46 (Homo sapiens); test: as §1, with “as antioxidant” for “as antiinflammatory”, “at 10” for “at 1”, “mins in presence of 1 uM TAS2R46 antagonist 3HDC” for “mins”; format: cell-based
[21] = biological target: T1, Taste receptor type 2 member 46 (Homo sapiens); test: Agonist activity at human TAS2R46 expressed in PMA-induced human BEAS2B cells assessed as antiinflammatory activity by measuring increase in IL-4 gene expression at 10 uM incubated for 18 hrs by qRT-PCR analysis; format: cell-based
[22] = biological target: T1, Taste receptor type 2 member 46 (Homo sapiens); test: Agonist activity at human TAS2R46 expressed in PMA-induced human BEAS2B cells assessed as antiinflammatory activity by measuring increase in IL-10 gene expression at 10 uM incubated for 18 hrs by qRT-PCR analysis; format: cell-based
[23] = biological target: T1, Taste receptor type 2 member 46 (Homo sapiens); test: Agonist activity at human TAS2R46 expressed in human BEAS2B cells assessed as antiinflammatory activity by measuring reduction in PMA-induced IL-1beta gene expression at 10 uM incubated for 18 hrs in presence of 1 uM TAS2R46 antagonist 3HDC by qRT-PCR analysis; format: cell-based
[24] = biological target: T1, Taste receptor type 2 member 46 (Homo sapiens); test: Agonist activity at human TAS2R46 expressed in human BEAS2B cells assessed as antiinflammatory activity by measuring reduction in PMA-induced MUC5AC gene expression at 1 to 10 uM incubated for 18 hrs by qRT-PCR analysis; format: cell-based
[25] = biological target: T1, Taste receptor type 2 member 46 (Homo sapiens); test: Agonist activity at human TAS2R46 expressed in human BEAS2B cells assessed as antiinflammatory activity by measuring reduction in PMA-induced iNOS protein level at 10 uM incubated for 18 hrs by TRITC-phalloidin/DAPI staining based analysis; format: cell-based
[26] = biological target: T1, Taste receptor type 2 member 46 (Homo sapiens); test: Agonist activity at human TAS2R46 expressed in human BEAS2B cells assessed as antioxidant activity by measuring reduction in PMA-induced superoxide anion generation at 10 uM preincubated for 1 hr followed by PMA addition and measured after 30 mins by cytochrome C reduction assay; format: cell-based

Activity [1] | Activity [2] | Activity [3] | Activity [4] | Activity [5] | Activity [6] | Activity [7] | Activity [8] | Activity [9] | Activity [10] | Activity [11] | Activity [13] | SMILES | Activity [12] | further results
inactive | Active | inactive | Active | inactive | Active | inactive | Active | Active | Active | Active | Active | CC1=C2C=C(C(C)NC(=O)N=[N+]=[N-])CC[C@](C)(O)[C@@H]2[C@H]2[C@@H]3CC4(C)O[C@@]5(C)CC[C@H]6[C@H](C)C(=O)O[C@@H]6C4([C@@H]35)[C@@H]12 (stereo not given in full) | Non-Toxic | –
Active | Active | Active | Active | Active | Active | inactive | Active | Active | inactive | Active | – | COC(=O)[C@@H](C)C1=CC2=C(C)[C@H]3[C@H]([C@@H]4CC5(C)O[C@@]6(C)CC[C@H]7[C@H](C)C(=O)O[C@@H]7C35[C@@H]46)[C@H]2[C@@](C)(O)CC1 | Non-Toxic | Activity [14]: inactive; Activity [15]: inactive
inactive | Active | Active | Active | inactive | Active | inactive | Active | Active | – | Active | inactive | CC1=C2C=C([C@H](C)C(=O)OCCc3ccccc3)CC[C@](C)(O)[C@@H]2[C@H]2[C@@H]3CC4(C)O[C@@]5(C)CC[C@H]6[C@H](C)C(=O)O[C@@H]6C4([C@@H]35)[C@@H]12 | Non-Toxic | –
inactive | Active | – | inactive | inactive | Active | inactive | Active | Active | – | – | inactive | CC1=C[C@@H]2[C@H]3[C@H](C(C)=C4[C@H]5OC(=O)[C@@H](C)[C@@H]5CC[C@](C)(O)[C@@H]43)[C@@]13[C@@H]2[C@@](C)(O)CC[C@H]1[C@H](C)C(=O)O[C@@H]13 | Non-Toxic | Activity [16]: Active; Activity [17]: Non-Toxic; Activity [18]: inactive; Activity [19]: Active; Activity [20]: inactive; Activity [21]: inactive; Activity [22]: inactive; Activity [23]: inactive; Activity [24]: Active; Activity [25]: Active; Activity [26]: Active

Source: ChEMBL document CHEMBL4622880, “Anti-inflammatory Activity of Absinthin and Derivatives in Human Bronchoepithelial Cells” (J Nat Prod, 2020)
